Experimental findings from US20240115654A1, “INTRAVENOUS ADMINISTRATION OF ENGINEERED ANTIMICROBIAL AMPHIPHILIC PEPTIDES” (priority 2021, published 2024) are described below.

Values after ≈ are worked out from the molar mass of the structure shown. Where two headings read alike, the source gives them in different places.

For test [1], the system named is Enterococcus faecium isolates (n = 104). The test is described as follows: microbe, parasite or virus in culture. To be noted: Enterococcus faecium. The procedure:
(§1) Comparator antibiotics were supplied by Micromyx, and stock solutions were prepared on the first day of testing using solvents recommended by CLSI (1). Stock solutions of all compounds were made at 40× the final testing concentration and stored at −80° C. prior to testing. Information regarding compound source, catalog and lot number, testing concentrations and drug diluent for the comparators and test agent are detailed below in Table 3.
The test organisms evaluated in this study consisted of clinical isolates from the Micromyx Repository and reference isolates from the American Type Culture Collection (ATCC; Manassas, VA). The clinical isolates were obtained from USA hospitals. Upon initial receipt at Micromyx, the organisms were sub-cultured onto an appropriate agar medium. Following incubation, colonies were harvested from these plates and cell suspensions prepared and frozen at −80° C. with a cryoprotectant. […] Plates were incubated at 35° C. overnight.
MIC values were determined using a broth microdilution procedure described by CLSI (1, 3).
(§2) The test articles and comparator compounds (300 μl at 40× the highest concentration to be tested) were dispensed into the appropriate wells in column 1. The Biomek 2000 was then used to make 2-fold serial dilutions in the mother plates from column 1 through column 11. The wells of Column 12 contained no drug and served as the organism growth control wells for the assay.
(§3) The daughter plates were completed on the Biomek FX instrument which transferred 5 μL of drug solution from each well of a mother plate to the corresponding well of each daughter plate in a single step. A standardized inoculum of each test organism was prepared per CLSI methods (1). The inoculum for each organism was dispensed into sterile reservoirs divided by length (Beckman Coulter), and the Biomek 2000 was used to inoculate the plates. Daughter plates were placed on the Biomek 2000 work surface in reverse orientation so that inoculation took place from low to high drug concentration.
(§4) Plates were stacked 3-4 high, covered with a lid on the top plate, placed in plastic bags, and incubated at 35° C. for 16 to 20 hrs. Following incubation, the microplates were removed from the incubator and viewed from the bottom using a plate viewer. […] The MIC was read and recorded as the lowest concentration of drug that inhibited visible growth of the organism.
(§5) Clinical breakpoints to determine percent resistance within a given organism group were obtained from CLSI (3), with the exception of colistin for K. pneumoniae, Enterobacter spp., and E. coli, which are only available from EUCAST.

The subject of test [2] is Escherichia coli isolates (n = 101). To be noted: Escherichia coli (n = 101); CLSI breakpoints, colistin EUCAST. The procedure: as §1
(§6) The test organisms evaluated in this study consisted of clinical isolates from the Micromyx Repository and reference isolates from the American Type Culture Collection (ATCC; Manassas, VA). The clinical isolates were obtained from USA hospitals. Upon initial receipt at Micromyx, the organisms were sub-cultured onto an appropriate agar medium. Following incubation, colonies were harvested from these plates and cell suspensions prepared and frozen at −80° C. with a cryoprotectant. Prior to testing, the isolates were streaked from frozen vials onto Trypticase Soy Agar with 5% sheep blood (Becton Dickenson [BD]; Sparks, MD; Lot Nos. 7173618, 7166759, 7208688, 72144895, 7228505 and Remel Lenexa, KS Lot No. 212574). Plates were incubated at 35° C. overnight.
(§7) Mueller Hinton II broth (MHB II; BD; Lot Nos. 6258541 and 7143896) was used for MIC testing of aerobic organisms.
(§8) MIC values were determined using a broth microdilution procedure described by CLSI (1, 3). Automated liquid handlers (Multidrop 384, Labsystems, Helsinki, Finland; Biomek 2000 and Biomek FX, Beckman Coulter, Fullerton CA) were used to conduct serial dilutions and liquid transfers.
as §2, with “To prepare the drug mother plates, which would provide the serial drug dilutions for the replicate daughter plates, the wells of columns 2-12 of standard 96-well microdilution plates (Costar 3795) were filled with 150 μl of the designated diluent for each row of drug. The test” for “The test”
as §3, with “The daughter plates were loaded with 185 μL per well of MHB II using the Multidrop 384. The daughter” for “The daughter”
as §4, §5

Test [3] concerns Klebsiella pneumoniae isolates (n = 101). The procedure:
as §1, §6, §7, §8
as §2, with “To prepare the drug mother plates, which would provide the serial drug dilutions for the replicate daughter plates, the wells of columns 2-12 of standard 96-well microdilution plates (Costar 3795) were filled with 150 μl of the designated diluent for each row of drug. The test” for “The test”
as §3, with “The daughter plates were loaded with 185 μL per well of MHB II using the Multidrop 384. The daughter” for “The daughter”
as §4, §5

Test [4] has as its system Acinetobacter spp. isolates (n = 104). The note with it: Acinetobacter spp. (n = 104); CLSI breakpoints. As to the method:
as §1, §6, §7, §8
as §2, with “To prepare the drug mother plates, which would provide the serial drug dilutions for the replicate daughter plates, the wells of columns 2-12 of standard 96-well microdilution plates (Costar 3795) were filled with 150 μl of the designated diluent for each row of drug. The test” for “The test”
as §3, with “The daughter plates were loaded with 185 μL per well of MHB II using the Multidrop 384. The daughter” for “The daughter”
as §4, §5

Test [5] has as its system Pseudomonas aeruginosa isolates (n = 109). The note with it: Pseudomonas aeruginosa (n = 109); CLSI breakpoints. As to the method:
as §1, §6, §7, §8
as §2, with “To prepare the drug mother plates, which would provide the serial drug dilutions for the replicate daughter plates, the wells of columns 2-12 of standard 96-well microdilution plates (Costar 3795) were filled with 150 μl of the designated diluent for each row of drug. The test” for “The test”
as §3, with “The daughter plates were loaded with 185 μL per well of MHB II using the Multidrop 384. The daughter” for “The daughter”
as §4, §5

The subject of test [6] is Staphylococcus aureus isolates (n = 104). Kind of test: microbe, parasite or virus in culture. To be noted: Staphylococcus aureus (n = 104); for % R (percent of isolates resistant): CLSI breakpoints. As to the method:
as §1, §6, §7, §8
as §2, with “To prepare the drug mother plates, which would provide the serial drug dilutions for the replicate daughter plates, the wells of columns 2-12 of standard 96-well microdilution plates (Costar 3795) were filled with 150 μl of the designated diluent for each row of drug. The test” for “The test”
as §3, with “The daughter plates were loaded with 185 μL per well of MHB II using the Multidrop 384. The daughter” for “The daughter”
as §4, §5

In test [7] the test system is Enterobacter spp. isolates (Enterobacter aerogenes and E. cloacae, n = 102). Kind of test: organism not typed. The procedure:
as §1, §6, §7, §8
as §2, with “To prepare the drug mother plates, which would provide the serial drug dilutions for the replicate daughter plates, the wells of columns 2-12 of standard 96-well microdilution plates (Costar 3795) were filled with 150 μl of the designated diluent for each row of drug. The test” for “The test”
as §3, with “The daughter plates were loaded with 185 μL per well of MHB II using the Multidrop 384. The daughter” for “The daughter”
as §4, §5

Consider `C[C@H]1COc2c(N3CCN(C)CC3)c(F)cc3c(=O)c(C(=O)O)cn1c23` [Levofloxacin], for which the MIC50 is greater than 8 µg/mL in test [1] and 0.06 µg/mL (≈ 0.166 µM) in test [7]. Further, the MIC90 is greater than 8 µg/mL in test [1], greater than 8 µg/mL in test [6] (all methicillin-resistant) and 0.5 µg/mL (≈ 1.38 µM) in test [7]. In addition, the MIC in test [1] (read-out: Mode (MIC)) is greater than 8 µg/mL; in test [7] (read-out: Mode (MIC)) it was 0.03 µg/mL (≈ 0.083 µM). In addition, the “% R (percent of isolates resistant)” value is given as 46.5% in test [2]; “over 60%” in test [3]; 67.3% in test [3] (Klebsiella pneumoniae (n = 101), CLSI breakpoints, colistin EUCAST); 66.3% in test [4]; 21.1% in test [5]; 82.7% in test [6]. For the same compound, the “% R (percent of isolates resistant)” value in test [6] (listed as levofloxacin) is “Over 80%”; in test [7] (Enterobacter spp. (n = 102), CLSI breakpoints, colistin EUCAST), 4.9%.
